Experiment [1] is described as follows: Antimetastatic activity against human ES2 cells xenografted in mouse lung assessed as inhibition of tumor growth at 50 mg/kg/day, po for 6 days a week for 2 weeks. Type of experiment: functional. The following applies: ES-2, read-out: TGI.
In the next experiment the test system is H22. In words: Antimetastatic activity against mouse H22 cells transplanted in mouse lung assessed as inhibition of tumor growth on the surface of lungs at 50 mg/kg/day, po for 6 days a week for 2 weeks. It is filed as functional. The following applies: read-out: TGI.
The target of experiment [2] is Aminopeptidase N (Sus scrofa) (UniProt P15145). Kind of experiment: Inhibition of aminopeptidase N.
A further experiment concerns K562. Kind of experiment: Antiproliferative activity against human K562 cells at 400 ug/ml after 48 hrs by MTT assay. Type of experiment: functional, cell-based.
In another experiment the test system is HL-60. Kind of experiment: Antiproliferative activity against human HL60 cells after 48 hrs by MTT assay. The note with it: HL-60, 48 h.
The nature of experiment [3]: Antimetastatic activity against human ES2 cells xenografted in mouse lung assessed as inhibition of tumor growth at 10 mg/kg/day, po for 6 days a week for 2 weeks. Type of experiment: functional. The note with it: ES-2, read-out: TGI. Background: In xenograft studies the graft and the host belong to different species.

Each structure is given as a SMILES string. pIC50: −log10 of the molar value. The source made the active and inactive calls. The calls are words filed in the database; no cut-off is given here.

From ChEMBL document CHEMBL1157052, “Novel cyclic-imide peptidomimetics as aminopeptidase N inhibitors. Structure-based design, chemistry and activity evaluation. II” (Eur J Med Chem, 2010) come the findings set out here.

What is called pIC50 is the IC50 on a negative log10 scale, so that one unit is a factor of ten. A higher pIC50 goes with a low IC50.

Sequence of Aminopeptidase N (Sus scrofa) (P15145 whole entry, looked up): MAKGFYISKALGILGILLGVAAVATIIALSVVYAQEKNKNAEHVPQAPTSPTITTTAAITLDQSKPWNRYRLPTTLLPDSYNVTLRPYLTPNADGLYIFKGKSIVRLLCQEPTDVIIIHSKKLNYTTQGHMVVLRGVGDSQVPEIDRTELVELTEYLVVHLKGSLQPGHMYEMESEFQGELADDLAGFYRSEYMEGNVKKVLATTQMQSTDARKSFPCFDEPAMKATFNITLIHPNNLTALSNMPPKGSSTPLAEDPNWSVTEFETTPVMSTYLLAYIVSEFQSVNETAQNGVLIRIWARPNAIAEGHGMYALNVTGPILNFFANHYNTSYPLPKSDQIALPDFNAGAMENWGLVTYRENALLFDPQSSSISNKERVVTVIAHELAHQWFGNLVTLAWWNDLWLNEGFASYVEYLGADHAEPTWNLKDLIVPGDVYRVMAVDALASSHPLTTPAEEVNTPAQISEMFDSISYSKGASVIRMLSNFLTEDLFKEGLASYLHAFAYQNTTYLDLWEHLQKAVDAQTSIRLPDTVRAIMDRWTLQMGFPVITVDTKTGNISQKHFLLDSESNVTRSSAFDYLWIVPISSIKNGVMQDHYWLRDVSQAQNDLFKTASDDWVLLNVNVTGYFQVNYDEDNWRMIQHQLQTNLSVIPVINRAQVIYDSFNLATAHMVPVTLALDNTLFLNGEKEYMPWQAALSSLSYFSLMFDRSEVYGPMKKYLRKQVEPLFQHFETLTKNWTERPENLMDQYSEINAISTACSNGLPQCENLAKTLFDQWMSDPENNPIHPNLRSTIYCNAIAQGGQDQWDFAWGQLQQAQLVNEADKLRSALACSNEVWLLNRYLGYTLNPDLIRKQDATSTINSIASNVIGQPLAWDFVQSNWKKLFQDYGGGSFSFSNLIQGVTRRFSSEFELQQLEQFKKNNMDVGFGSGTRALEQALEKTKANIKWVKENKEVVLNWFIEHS

In the case of `CC(C)C[C@H](NC(=O)[C@@H](O)[C@H](N)Cc1ccccc1)C(=O)O` [UBENIMEX], the inhibition in vivo at 50 mg/kg/day in experiment [1] worked out at 36.2%; with H22, 45.4%.
With `COc1cc(C(=O)N[C@H]2CCC(=O)N(CC(=O)NO)C2=O)cc(OC)c1OC`, the pIC50 in experiment [2] was 5.51.
As to `N[C@@H](Cc1ccccc1)C(=O)N[C@H]1CCC(=O)N(CC(=O)NO)C1=O`, the outcome in the experiment on K562 was inactive. This molecule had a pIC50 in the experiment with HL-60 of 3.98. The inhibition in vivo at 10 mg/kg/day in experiment [3] worked out at 30.9%. Moreover, the inhibition in vivo at 50 mg/kg/day in the experiment on H22 is 72.9%.
Consider `N[C@@H](Cc1ccc(O)cc1)C(=O)N[C@H]1CCC(=O)N(CC(=O)NO)C1=O`, for which, in the experiment on HL-60, the pIC50 was 3.83. For the same molecule, in the experiment with H22, the inhibition in vivo at 50 mg/kg/day came to 62.7%.
